From patent publication US20090149332A1, “METHODS FOR DETERMINING THE ACTIVITY OF ADAM-TS PROTEASES USING THIOPEPTOLIDES” (SANOFI-AVENTIS DEUTSCHLAND GMBH, priority 2005, published 2009)
[ ]: non-standard residue; d: D form. The star is where a group is joined. Dnp = O=[N+]([O-])c1ccc(*)c([N+](=O)[O-])c1; Mca = COc1ccc2c(CC(=O)*)cc(=O)oc2c1; Nva = CCC[C@H](N)C(=O)O; Dap = NC[C@H](N)C(=O)O; Mob = COc1ccc(C*)cc1

Legend:
Assay type in all cases: biochemical
[1] = system: ADAMTS; assay: Colorimetric thiopeptolide conversion assay (Example 2); details: Example 2, ADAMTS-1 and ADAMTS-4 tested
Method: (§1) TNCB Buffer (see Example 1)
(§2) ADAMTS (Invitek Gesellschaft für Biotechnik & Biodesign mbH, Berlin, Germany) 5 μg of ADAMTS-1 were diluted with 2200 μL, and 5 μg of ADAMTS-4 were diluted with 600 μl of TNCB buffer.
(§3) 1) DTNB Solution (5,5′-dithiobis(2-nitrobenzoic Acid):
(§4) A 40 mM stock solution in DMSO was prepared:
(§5) Then 27.5 μL of DTNB stock solution were diluted with 522 μL of water.
(§6) A 100 mM stock solution in DMSO was prepared. For use, 55 μL of thiopeptilide stock solution were diluted with 500 μL of TNCB buffer.
(§7) Immediately before use, 550 μl of DTNB were mixed with 550 μl of thiopeptilide.
(§8) The measurements were carried out in 96-multiwell plates (half area plates, flat bottom, clear, polystyrene, No. 3695) (Corning Costar, Acton, USA).
(§9) 10 μL of enzyme solution and 10 μL of H2O were mixed, and the reaction was started by adding 10 μL of substrate solution.
(§10) Microtiter plate photometer: Molecular Devices Sunnyvale, USA. SpectraMax 190.

[2] = system: ADAMTS-1; assay: Colorimetric thiopeptolide conversion assay, Ellman's reaction with DTNB (Example 2); design: key: +: Increase in the optical signal was observed over 5 minutes; details: absorption at 415 nm for 5 min
Method: as §1, §2, §3, §4, §5, §6, §7, §8, §9, §10

[3] = system: ADAMTS-4; assay: as above; design: key: +: Increase in the optical signal was observed over 5 minutes; details: absorption at 415 nm for 5 min
Method: as §1, §2, §3, §4, §5, §6, §7, §8, §9, §10

[4] = target: T1, MMP-3cd (Homo sapiens, UniProt P08254); assay: as above; design: key: +: Increase in the optical signal was observed over 5 minutes; details: absorption at 415 nm for 5 min
T1 construct: The catalytic domains of the human recombinant MMP-3 and MMP-8 protein, MMP-3cd and MMP-8cd; purchased Biomol International L. P. Pennsylvania, USA SE-109
T1 sequence (P08254 100-272 limits assumed): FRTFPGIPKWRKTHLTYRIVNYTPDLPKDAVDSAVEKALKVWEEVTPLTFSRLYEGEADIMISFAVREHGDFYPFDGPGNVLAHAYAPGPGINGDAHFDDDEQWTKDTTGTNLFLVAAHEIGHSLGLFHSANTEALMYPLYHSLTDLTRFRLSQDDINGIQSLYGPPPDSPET
Method: as §1, §3, §4, §5, §6, §7, §8, §9, §10

[5] = target: T2, MMP-8cd (Homo sapiens, UniProt P22894); assay: as above; design: key: +: Increase in the optical signal was observed over 5 minutes; details: absorption at 415 nm for 5 min
T2 construct: The catalytic domains of the human recombinant MMP-3 and MMP-8 protein, MMP-3cd and MMP-8cd; purchased Biomol International L. P. Pennsylvania, USA SE-255
T2 sequence (P22894 100-262 limits assumed): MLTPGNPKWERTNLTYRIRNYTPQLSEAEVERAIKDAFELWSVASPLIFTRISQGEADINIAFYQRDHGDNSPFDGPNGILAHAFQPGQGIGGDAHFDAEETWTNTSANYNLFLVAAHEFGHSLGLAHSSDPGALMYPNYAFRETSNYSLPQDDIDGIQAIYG
Method: as §1, §3, §4, §5, §6, §7, §8, §9, §10

[6] = target: T1, MMP-3cd; assay: Fluorometric substrate conversion assay (Comparative Example 1); design: key to Conversion of fluorimetric substrate by MMP-3 cd (increase in the optical signal): +: Increase in the optical signal was observed over 5 minutes; details: for Conversion of fluorimetric substrate by MMP-3 cd (increase in the optical signal): fluorescence measured for 5 minutes, λex/λem per substrate
Method: (§11) The catalytic domains of the human recombinant MMP-3 and MMP-8 protein, MMP-3cd and MMP-8cd, can be purchased from, for example, Biomol International L. P. Pennsylvania, USA; catalog number SE-109 and SE-255 respectively. The truncated forms of ADAM-TS1 and ADAM-TS4 protease can likewise be purchased from, for example, Invitek, Gesellschaft für Biotechnik & Biodesign mbH, Berlin, Germany, catalog number 30400402 and 30400102, respectively.
(§12) 100 mM tris(hydroxymethyl)aminomethane, adjusted to pH 7.5 with HCl-100
(§13) 10 mM substrates (see Table) in DMSO, immediately before use, 2 μL of the substrate stock solution were diluted with 130 μL of H2O.
(§14) MMP-3cd (2.3 μg/mL), MMP-8cd (0.6 μg/mL), ADAMTS-1 (2.3 μg/mL) and ADAMTS-4 (3.3 μg/mL) were diluted with TNCB buffer.
(§15) 10 μL of enzyme solution were mixed with 10 μL of H2O, and the reaction was started by adding 10 μL of substrate solution.
(§16) The fluorescence was measured in a TECAN Spectrafluor Plus fluorescence apparatus; Excitation/Emission (see Table). This entailed measuring the fluorescence for 5 minutes on each occasion.

[7] = target: T2, MMP-8cd; assay: as above; design: key to Conversion of fluorimetric substrate by MMP-8 cd (increase in the optical signal): +: Increase in the optical signal was observed over 5 minutes; details: for Conversion of fluorimetric substrate by MMP-8 cd (increase in the optical signal): fluorescence measured for 5 minutes, λex/λem per substrate
Method: as §11, §12, §13, §14, §15, §16

For `CCOC(=O)CNC(=O)[C@H](CC(C)C)NC(=O)C(CC(C)C)SC(=O)CNC(=O)[C@H](CC(C)C)NC(=O)[C@@H]1CCCN1C(C)=O` (stereo partly drawn) [Compound 1, Ac—P-L-G-[(S)-2-mercapto-4-methylpentanoyl]-L-G-OEt], the “Conversion by ADAMTS (in words)” value [1] was “converted”, the “Conversion of colorimetric substrate in Ellman's reaction by ADAMTS-1” value [2] was “+” and the “Conversion of colorimetric substrate in Ellman's reaction by ADAMTS-4” value [3] was “+”. For the same compound, the “Conversion of colorimetric substrate in Ellman's reaction by MMP-3 cd” value [4] was “+” and the “Conversion of colorimetric substrate in Ellman's reaction by MMP-8 cd” value [5] was “+”.

In the case of `CCCC(SC(=O)C(C)NC(=O)[C@H](CC(C)C)NC(=O)[C@@H]1CCCN1C(C)=O)C(=O)N[C@@H](Cc1c[nH]c2ccccc12)C(N)=O` (stereo partly drawn) [Compound 2, Ac—P-L-A-[(S)-2-mercaptopentanoyl]-W—NH2], the “Conversion by ADAMTS (in words)” value [1] is reported as “not converted”, the “Conversion of colorimetric substrate in Ellman's reaction by MMP-3 cd” value [4] is reported as “+” and the “Conversion of colorimetric substrate in Ellman's reaction by MMP-8 cd” value [5] is reported as “+”.

With “(7-methoxycoumarin-4-yl)acetyl-Pro-Leu-Gly-Leu-3-(2′,4′-dinitro-phenyl)-L-2,3-diaminopropionyl-Ala-Arg-NH2 [Mca-P-L-G-L-Dap(Dnp)-A-R—NH2]” the “Conversion of fluorimetric substrate by MMP-3 cd (increase in the optical signal)” value [6] was “+”, the “Conversion with the protease MMP-3 (in words)” value ([6]; see experimental section) was “possible to convert” and the “Conversion of fluorimetric substrate by MMP-8 cd (increase in the optical signal)” value [7] was “+”. The “Conversion with the protease MMP-8 (in words)” value ([7]; see experimental section) was “possible to convert”.

With “Dnp-P-L-G-L-W-A-R—NH2 (Dnp-PLGLWAR-NH2; SMILES CC(C)C[C@H](NC(=O)CNC(=O)[C@H](CC(C)C)NC(=O)[C@@H]1CCCN1c1ccc([N+](=O)[O-])cc1[N+](=O)[O-])C(=O)N[C@@H](Cc1c[nH]c2ccccc12)C(=O)N[C@@H](C)C(=O)N[C@@H](CCCNC(=N)N)C(N)=O) [fluorimetric MMP substrate, Bachem M-1855]” the “Conversion of fluorimetric substrate by MMP-3 cd (increase in the optical signal)” value [6] was “+”.

For “Dnp-P-β-cyclohexyl-A-G-C(Me)-H-A-K—(N-Me-Abz)-NH2”, the “Conversion of fluorimetric substrate by MMP-3 cd (increase in the optical signal)” value [6] was “+” and the “Conversion of fluorimetric substrate by MMP-8 cd (increase in the optical signal)” value [7] was “+”.

For Mca-GKPILFFRLK(Dnp)R-NH2, the “Conversion of fluorimetric substrate by MMP-3 cd (increase in the optical signal)” value [6] was “+”.

For Mca-P-β-cyclohexyl-A-G-Nva-H-A-Dpa-NH2, the “Conversion of fluorimetric substrate by MMP-3 cd (increase in the optical signal)” value [6] was “+” and the “Conversion of fluorimetric substrate by MMP-8 cd (increase in the optical signal)” value [7] was “+”.

Mca-PLAC(Mob)WAR[Dap](Dnp)-NH2 was tested, and the “Conversion of fluorimetric substrate by MMP-3 cd (increase in the optical signal)” value [6] was “+” and the “Conversion of fluorimetric substrate by MMP-8 cd (increase in the optical signal)” value [7] was “+”.

Mca-PLAQAV[Dap](Dnp)RSSSR-NH2 was tested, and the “Conversion of fluorimetric substrate by MMP-3 cd (increase in the optical signal)” value [6] was “+”.

With Mca-PLA[Nva][Dap](Dnp)AR-NH2 the “Conversion of fluorimetric substrate by MMP-3 cd (increase in the optical signal)” value [6] was “+” and the “Conversion of fluorimetric substrate by MMP-8 cd (increase in the optical signal)” value [7] was “+”.

For Mca-RPLALWR[Dap](Dnp)-NH2, the “Conversion of fluorimetric substrate by MMP-3 cd (increase in the optical signal)” value [6] was “+” and the “Conversion of fluorimetric substrate by MMP-8 cd (increase in the optical signal)” value [7] was “+”.

In the case of Mca-R—P—K—P—V-E-Nval-W—R—K-(Dnp)-NH2, the “Conversion of fluorimetric substrate by MMP-3 cd (increase in the optical signal)” value [6] is reported as “+”.

In the case of Mca-R—P—K—P—Y-A-Nva-Met-K(Dnp)-NH2, the “Conversion of fluorimetric substrate by MMP-3 cd (increase in the optical signal)” value [6] is reported as “+” and the “Conversion of fluorimetric substrate by MMP-8 cd (increase in the optical signal)” value [7] is reported as “+”.

NBD-eAhx-R—P—K—P-L-A-Nva-W—K(DMACA)-NH2 was tested, and the “Conversion of fluorimetric substrate by MMP-3 cd (increase in the optical signal)” value [6] was “+” and the “Conversion of fluorimetric substrate by MMP-8 cd (increase in the optical signal)” value [7] was “+”.
